One assay deals with Galectin-1 (Homo sapiens, UniProt P09382). Put plainly: Biological Assay. The procedure: (§1) The inhibitory activity of compounds is determined in competitive binding assays. […] Finally, 25 μL/well of ABTS substrate is added.
The next assay addresses Galectin-3 (Homo sapiens, UniProt P17931). The assay can be described thus: Biological Assay. The procedure:
as §1

Galectin-3, sequence (P17931 whole entry): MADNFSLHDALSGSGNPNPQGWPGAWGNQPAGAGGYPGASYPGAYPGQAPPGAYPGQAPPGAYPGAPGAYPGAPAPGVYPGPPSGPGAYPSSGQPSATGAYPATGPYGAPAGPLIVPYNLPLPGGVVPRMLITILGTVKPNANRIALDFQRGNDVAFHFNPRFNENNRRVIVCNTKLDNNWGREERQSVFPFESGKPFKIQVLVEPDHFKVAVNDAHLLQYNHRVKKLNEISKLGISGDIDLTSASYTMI
Galectin-1, sequence (P09382 whole entry): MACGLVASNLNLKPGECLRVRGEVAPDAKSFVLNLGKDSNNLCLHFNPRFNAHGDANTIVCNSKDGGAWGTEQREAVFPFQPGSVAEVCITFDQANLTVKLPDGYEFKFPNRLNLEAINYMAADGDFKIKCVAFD

Regarding `Cc1nc(CN(C(=O)[C@@H]2O[C@H](CO)[C@H](O)[C@H](n3cc(-c4cc(F)c(F)c(F)c4)nn3)[C@H]2O)[C@H]2CCCC[C@@H]2O)c[nH]1` [US12291519, Example 14], the figures for the IC50 on Galectin-1 and against Galectin-3 were 40.6 µM and 0.564 µM, respectively.

With `Cn1cnc(CN(C(=O)[C@@H]2O[C@H](CO)[C@H](O)[C@H](n3cc(-c4cc(F)c(F)c(F)c4)nn3)[C@H]2O)[C@H]2CCCC[C@@H]2O)c1` [US12291519, Example 19], the concentration for half-maximal inhibition (IC50) amounted to 37.6 µM against Galectin-1 and 0.403 µM on Galectin-3.

In the case of `Cn1ccc(CN(C(=O)[C@@H]2O[C@H](CO)[C@H](O)[C@H](n3cc(-c4cc(F)c(F)c(F)c4)nn3)[C@H]2O)[C@H]2CCCC[C@@H]2O)n1` [US12291519, Example 24], the IC50 against Galectin-1 turned out to be 25.9 µM; at Galectin-3, 0.294 µM.

Consider `O=C([C@@H]1O[C@H](CO)[C@H](O)[C@H](n2cc(-c3cc(F)c(Cl)c(F)c3)nn2)[C@H]1O)N(Cc1ccccc1C(F)(F)F)[C@H]1CCCC[C@@H]1O` [US12291519, Example 67], for which the half-maximal inhibitory concentration (IC50) against Galectin-1 is 0.61 µM; on Galectin-3 it was 0.042 µM.

Take `CO[C@@H]1[C@@H](n2cc(-c3cccc(F)c3)nn2)[C@@H](O)[C@@H](CO)O[C@H]1C(=O)N(c1cc(Cl)cc(Cl)c1)[C@H]1CCCC[C@@H]1O` [US12291519, Example 72]: the IC50 on Galectin-1 was 0.058 µM; against Galectin-3, 0.031 µM.

As for `CO[C@@H]1[C@@H](n2cc(-c3cccc(F)c3)nn2)[C@@H](O)[C@@H](CO)O[C@H]1C(=O)N(c1cc(Br)cc(C#N)c1)[C@H]1CCCC[C@@H]1O` [US12291519, Example 77], the half-maximal inhibitory concentration (IC50) against Galectin-1 is 0.14 µM; against Galectin-3, 0.037 µM.

For the compound `CO[C@@H]1[C@@H](n2cc(-c3cc(F)cc(F)c3)nn2)[C@@H](O)[C@@H](CO)O[C@H]1C(=O)N(c1cc(Cl)cc(Cl)c1)[C@H]1CCCC[C@@H]1O` [US12291519, Example 78], the IC50 against Galectin-1 is 0.192 µM; against Galectin-3, 0.026 µM.

As to `CO[C@@H]1[C@@H](n2cc(-c3cc(F)c(F)c(F)c3)nn2)[C@@H](O)[C@@H](CO)O[C@H]1C(=O)N(c1ccc(Cl)c(Cl)c1)[C@H]1CCCC[C@@H]1O` [US12291519, Example 98], the IC50 against Galectin-1 was determined as 0.169 µM; against Galectin-3 it was 0.033 µM.

Regarding `CO[C@@H]1[C@@H](n2cc(-c3cc(F)c(F)c(F)c3)nn2)[C@@H](O)[C@@H](CO)O[C@H]1C(=O)N(c1cc(Br)cc(C#N)c1)[C@H]1CCCC[C@@H]1O` [US12291519, Example 112], the IC50 was found to be 0.15 µM on Galectin-1 and 0.008 µM against Galectin-3.

`CO[C@@H]1[C@@H](n2cc(-c3cc(F)cc(Cl)c3)nn2)[C@@H](O)[C@@H](CO)O[C@H]1C(=O)N(c1cc(Cl)cc(C#N)c1)[C@H]1CCCC[C@@H]1O` [US12291519, Example 133]: the IC50 at Galectin-1 turned out to be 0.184 µM; against Galectin-3, 0.022 µM.

As to `CO[C@@H]1[C@@H](n2cc(-c3cc(F)c(Cl)c(F)c3)nn2)[C@@H](O)[C@@H](CO)O[C@H]1C(=O)N(c1cc(Cl)cc(Cl)c1)[C@H]1CCCC[C@@H]1O` [US12291519, Example 156], the results for the IC50 on Galectin-1 and on Galectin-3 were 1.38 µM and 0.014 µM, respectively.

In the case of `CO[C@@H]1[C@@H](n2cc(-c3cc(F)c(Cl)c(F)c3)nn2)[C@@H](O)[C@@H](CO)O[C@H]1C(=O)N(c1cc(Cl)cc(C#N)c1)[C@H]1CCCC[C@@H]1O` [US12291519, Example 157], the IC50 against Galectin-1 was 0.709 µM; on Galectin-3, 0.019 µM.

As to `CO[C@@H]1[C@@H](n2cc(-c3cc(F)c(Cl)c(Cl)c3)nn2)[C@@H](O)[C@@H](CO)O[C@H]1C(=O)N(c1cc(Cl)cc(C#N)c1)[C@H]1CCCC[C@@H]1O` [US12291519, Example 169], the IC50 against Galectin-1 was 0.333 µM; on Galectin-3 it was 0.014 µM.

Take `CO[C@@H]1[C@@H](n2cc(-c3ccc(C(F)(F)F)c(F)c3)nn2)[C@@H](O)[C@@H](CO)O[C@H]1C(=O)N(c1cc(Cl)cc(Cl)c1)[C@H]1CCCC[C@@H]1O` [US12291519, Example 180]: the IC50 on Galectin-1 turned out to be 1.2 µM; on Galectin-3, 0.011 µM.

Turning to `CO[C@@H]1[C@@H](n2cc(-c3cc(F)c(Cl)cc3F)nn2)[C@@H](O)[C@@H](CO)O[C@H]1C(=O)N(c1cc(Cl)cc(C#N)c1)[C@H]1CCCC[C@@H]1O` [US12291519, Example 182], the IC50 on Galectin-1 was 0.267 µM; on Galectin-3, 0.035 µM.

With `COc1cc(-c2cn([C@H]3[C@@H](O)[C@@H](CO)O[C@@H](C(=O)N(c4cc(Cl)cc(Cl)c4)[C@H]4CCCC[C@@H]4O)[C@@H]3OC)nn2)cc(F)c1F` [US12291519, Example 183], the IC50 is 0.516 µM against Galectin-1 and 0.009 µM against Galectin-3.

Consider `COc1cc(-c2cn([C@H]3[C@@H](O)[C@@H](CO)O[C@@H](C(=O)N(c4cc(Cl)cc(C#N)c4)[C@H]4CCCC[C@@H]4O)[C@@H]3OC)nn2)ccc1Cl` [US12291519, Example 184], for which the IC50 against Galectin-1 is 0.282 µM; against Galectin-3 it was 0.029 µM.

On to `COc1cc(C#N)cc(N(C(=O)[C@@H]2O[C@H](CO)[C@H](O)[C@H](n3cc(-c4ccc(Cl)c(Cl)c4)nn3)[C@H]2OC)[C@H]2CCCC[C@@H]2O)c1` [US12291519, Example 188], for which the IC50 at Galectin-1 was 1.12 µM; on Galectin-3, 0.044 µM.

`O=C([C@@H]1O[C@H](CO)[C@H](O)C(n2cc(-c3cc(F)c(F)c(F)c3)nn2)[C@H]1OCCO)N(c1cc(Cl)cc(Cl)c1)[C@H]1CCCC[C@@H]1O` (stereo partly drawn) [US12291519, Example 196]: the IC50 at Galectin-1 worked out at 0.161 µM; on Galectin-3 it was 0.021 µM.

The term IC50 denotes the concentration at which inhibition is half-maximal. A low value points to inhibition by little substance.

The values above are taken from BindingDB's records for patent US12291519 (Idorsia Pharmaceuticals, 2025).
